Experimental data taken from patent US20220387457A1 (Qlaris Bio, Inc., priority 2020, published 2022).

Experiment: Toxicokinetics after escalating intravenous doses of CKLP1 in beagles
Format: in vivo, beagle dog
Parameters: AUCTlast/Dose: unit not given here
Conditions: for C0 / Cmax / RAUC / Tlast / Tmax / Vd / clearance / half-life / λZ range / AUC(0-inf) / AUC(0-t): beagle, dog, in vivo, iv; for AUCTlast/Dose / Cmax/Dose: male dog
Method: Two beagles (one male and one female) were intravenously injected with escalating doses of CKPL1 (0.05 mg/kg, 0.5 mg/kg, 1.5 mg/kg, 3 mg/kg, and 5 mg/kg) to assess the toxicity of CKLP1. The injection was done through the cephalic vein and CKLP1 was administered in a phosphate buffered saline solution ((0.096% sodium phosphate dibasic, 0.089% sodium dihydrogen orthophosphate monohydrate, 0.83% sodium chloride) pH 6.5±0.1 in sterile water for injection USP). The dosing schedule is shown below in Table 3.
The following parameters and endpoints were evaluated: mortality, clinical observations, body and organ weights, and food consumption. Bioanalytical samples for toxicokinetic parameters (for both CKLP1 and leveromakalim) were collected after each dose level (days 1, 3, 8, 10, and 14) at predose, 1, 3, 6, 8, and 24 hours postdose. Animals were released from the study after completion of the bioanalytical sample collection schedule.
Toxicokinetics (TK) were determined based on the individual exposures for each animal on each sampled study day (days 1, 3, 8, 10, and 14). […] Predose samples had no quantifiable exposure in any animal on any day, with the exception of the female dog on day 10. The predose concentration for the female dog on day 10 was excluded from the TK analysis in order to allow for estimation of the IV C0.

[1] = IV CKLP1 0.05 mg/kg, study day 1
[2] = IV CKLP1 0.5 mg/kg, study day 3
[3] = IV CKLP1 1.5 mg/kg, study day 8

With `CC1(C)Oc2ccc(C#N)cc2[C@@H](N2CCCC2=O)[C@@H]1OP(=O)(O)O` [CKLP1] as the molecule, how does the C0 (female, 5 mg/kg) read?
Its C0 is 32.2 µg/mL.

What about the Cmax (female, 5 mg/kg) of the same molecule?
Its Cmax is 29.3 µg/mL.

What about the RAUC (female, 5 mg/kg) of the same molecule?
Its RAUC is 148.

And the Tlast (female, 5 mg/kg)?
The Tlast was 24.0 h.

And the Tmax (female, 5 mg/kg)?
The Tmax was 1 h.

What about the Vd (female, 5 mg/kg) of the same molecule?
Its Vd is 0.131 L/kg.

And the clearance (female, 5 mg/kg)?
The clearance was 0.253 mL/min/kg.

And the half-life (female, 5 mg/kg)?
The half-life was 5.98 h.

And the λZ range (female, 5 mg/kg)?
The λZ range was 3 to 24 h.

And the AUCTlast/Dose [1]?
Its AUCTlast/Dose is 22400.

And the Cmax/Dose [1]?
The Cmax/Dose was 4.9e+06 µg/mL.

What about the AUCTlast/Dose [2] of the same molecule?
The AUCTlast/Dose was 28500.

What about the Cmax/Dose [2] of the same molecule?
Its Cmax/Dose is 5.2e+06 µg/mL.

What about the AUCTlast/Dose [3] of the same molecule?
Its AUCTlast/Dose is 28800.

What about the Cmax/Dose [3] of the same molecule?
The Cmax/Dose was 5.13e+06 µg/mL.

What about the AUCTlast/Dose (IV CKLP1 3 mg/kg, study day 10) of the same molecule?
Its AUCTlast/Dose is 28400.

What about the Cmax/Dose (IV CKLP1 3 mg/kg, study day 10) of the same molecule?
Its Cmax/Dose is 4.8e+06 µg/mL.

What about the AUCTlast/Dose (IV CKLP1 5 mg/kg, study day 14) of the same molecule?
The AUCTlast/Dose was 31700.

What about the Cmax/Dose (IV CKLP1 5 mg/kg, study day 14) of the same molecule?
The Cmax/Dose was 4.48e+06 µg/mL.

What about the AUC(0-inf) (male, 0.05 mg/kg) of the same molecule?
The AUC(0-inf) was 1230 ng·h/mL.

What about the AUC(0-t) (male, 0.05 mg/kg) of the same molecule?
The AUC(0-t) was 1120 ng·h/mL.

What about the C0 (male, 0.05 mg/kg) of the same molecule?
Its C0 is 0.301 µg/mL.

And the Cmax (male, 0.05 mg/kg)?
Its Cmax is 0.245 µg/mL.

What about the Tlast (male, 0.05 mg/kg) of the same molecule?
Its Tlast is 8.00 h.

And the Tmax (male, 0.05 mg/kg)?
Its Tmax is 1 h.

And the Vd (male, 0.05 mg/kg)?
Its Vd is 0.131 L/kg.

What about the clearance (male, 0.05 mg/kg) of the same molecule?
Its clearance is 0.678 mL/min/kg.

What about the half-life (male, 0.05 mg/kg) of the same molecule?
The half-life was 2.23 h.

And the λZ range (male, 0.05 mg/kg)?
Its λZ range is 3 to 8 h.

What about the AUC(0-inf) (male, 0.5 mg/kg) of the same molecule?
The AUC(0-inf) was 14300 ng·h/mL.

What about the AUC(0-t) (male, 0.5 mg/kg) of the same molecule?
The AUC(0-t) was 14300 ng·h/mL.

And the C0 (male, 0.5 mg/kg)?
Its C0 is 3.58 µg/mL.

What about the Cmax (male, 0.5 mg/kg) of the same molecule?
The Cmax was 2.6 µg/mL.

What about the RAUC (male, 0.5 mg/kg) of the same molecule?
The RAUC was 12.8.

And the Tlast (male, 0.5 mg/kg)?
The Tlast was 24.0 h.

What about the Tmax (male, 0.5 mg/kg) of the same molecule?
Its Tmax is 1 h.

And the Vd (male, 0.5 mg/kg)?
The Vd was 0.143 L/kg.

What about the clearance (male, 0.5 mg/kg) of the same molecule?
The clearance was 0.583 mL/min/kg.

And the half-life (male, 0.5 mg/kg)?
Its half-life is 2.84 h.

What about the λZ range (male, 0.5 mg/kg) of the same molecule?
The λZ range was 3 to 24 h.

And the AUC(0-inf) (male, 1.5 mg/kg)?
The AUC(0-inf) was 43300 ng·h/mL.

What about the AUC(0-t) (male, 1.5 mg/kg) of the same molecule?
Its AUC(0-t) is 43200 ng·h/mL.

And the C0 (male, 1.5 mg/kg)?
The C0 was 10.4 µg/mL.

What about the Cmax (male, 1.5 mg/kg) of the same molecule?
The Cmax was 7.69 µg/mL.

And the RAUC (male, 1.5 mg/kg)?
The RAUC was 38.6.

And the Tlast (male, 1.5 mg/kg)?
Its Tlast is 24.0 h.

And the Tmax (male, 1.5 mg/kg)?
The Tmax was 1 h.

And the Vd (male, 1.5 mg/kg)?
Its Vd is 0.146 L/kg.

What about the clearance (male, 1.5 mg/kg) of the same molecule?
Its clearance is 0.578 mL/min/kg.

What about the half-life (male, 1.5 mg/kg) of the same molecule?
Its half-life is 2.91 h.

And the λZ range (male, 1.5 mg/kg)?
The λZ range was 1 to 24 h.

What about the AUC(0-inf) (male, 3 mg/kg) of the same molecule?
The AUC(0-inf) was 89000 ng·h/mL.

What about the AUC(0-t) (male, 3 mg/kg) of the same molecule?
Its AUC(0-t) is 85100 ng·h/mL.

What about the C0 (male, 3 mg/kg) of the same molecule?
Its C0 is 18.5 µg/mL.

What about the Cmax (male, 3 mg/kg) of the same molecule?
Its Cmax is 14.4 µg/mL.

What about the RAUC (male, 3 mg/kg) of the same molecule?
The RAUC was 76.0.

And the Tlast (male, 3 mg/kg)?
Its Tlast is 24.0 h.

And the Tmax (male, 3 mg/kg)?
The Tmax was 1 h.

And the Vd (male, 3 mg/kg)?
The Vd was 0.303 L/kg.

And the clearance (male, 3 mg/kg)?
The clearance was 0.562 mL/min/kg.

What about the half-life (male, 3 mg/kg) of the same molecule?
The half-life was 6.22 h.

And the λZ range (male, 3 mg/kg)?
The λZ range was 6 to 24 h.

And the AUC(0-inf) (male, 5 mg/kg)?
The AUC(0-inf) was 160000 ng·h/mL.

And the AUC(0-t) (male, 5 mg/kg)?
The AUC(0-t) was 159000 ng·h/mL.

And the C0 (male, 5 mg/kg)?
Its C0 is 25.9 µg/mL.

What about the Cmax (male, 5 mg/kg) of the same molecule?
The Cmax was 22.4 µg/mL.

And the RAUC (male, 5 mg/kg)?
The RAUC was 142.

And the Tlast (male, 5 mg/kg)?
Its Tlast is 24.0 h.

What about the Tmax (male, 5 mg/kg) of the same molecule?
The Tmax was 1 h.

And the Vd (male, 5 mg/kg)?
The Vd was 0.156 L/kg.

What about the clearance (male, 5 mg/kg) of the same molecule?
Its clearance is 0.522 mL/min/kg.

What about the half-life (male, 5 mg/kg) of the same molecule?
The half-life was 3.47 h.

What about the λZ range (male, 5 mg/kg) of the same molecule?
Its λZ range is 1 to 24 h.
